Activity calls are given as the source filed them. The calls are words filed in the database; no cut-off is given here.
How the values were obtained:
Salmonella typhi [1] = assay: Antibacterial activity against Salmonella typhi at 10 ug after 24 hrs by disc diffusion assay; assay type: functional, Salmonella enterica subsp. enterica serovar Typhi; settings: Salmonella enterica, read-out: IZ
Salmonella typhi [2] = assay: Antibacterial activity against Salmonella typhi at 15 ug after 24 hrs by disc diffusion assay; assay type: functional, Salmonella enterica subsp. enterica serovar Typhi; settings: Salmonella enterica, read-out: IZ
Salmonella typhi [3] = assay: Antibacterial activity against Salmonella typhi at 20 ug after 24 hrs by disc diffusion assay; assay type: functional, Salmonella enterica subsp. enterica serovar Typhi; settings: Salmonella enterica, read-out: IZ
Salmonella typhi [4] = assay: Antibacterial activity against Salmonella typhi at 25 ug after 24 hrs by disc diffusion assay; assay type: functional, Salmonella enterica subsp. enterica serovar Typhi; settings: Salmonella enterica, read-out: IZ
Bacillus subtilis [5] = assay: Antibacterial activity against Bacillus subtilis at 10 ug after 24 hrs by disc diffusion assay; assay type: functional; settings: read-out: IZ
Bacillus subtilis [6] = assay: Antibacterial activity against Bacillus subtilis at 15 ug after 24 hrs by disc diffusion assay; assay type: functional; settings: read-out: IZ
Bacillus subtilis [7] = assay: Antibacterial activity against Bacillus subtilis at 20 ug after 24 hrs by disc diffusion assay; assay type: functional; settings: read-out: IZ
Bacillus subtilis [8] = assay: Antibacterial activity against Bacillus subtilis at 25 ug after 24 hrs by disc diffusion assay; assay type: functional; settings: read-out: IZ
Escherichia coli [9] = assay: Inhibition of Escherichia coli DNA gyrase assessed as inhibition of DNA supercoiling activity using pBR322 DNA as substrate at […] after 3 hrs by agarose gel electrophoresis
Escherichia coli [10] = assay: Inhibition of Escherichia coli DNA gyrase -mediated DNA relaxation using pBR322 DNA as substrate at […] after 1 hrs by agarose gel electrophoresis
Escherichia coli [11] = assay: Inhibition of DNA gyrase mRNA expression in Escherichia coli measured up to 24 hrs by RT-PCR; assay type: functional, organism-based
Staphylococcus aureus [12] = assay: Antibacterial activity against Staphylococcus aureus after 18 to 20 hrs by broth micro dilution assay; assay type: functional
Escherichia coli [13] = assay: Antibacterial activity against Escherichia coli after 18 to 20 hrs by broth micro dilution assay; assay type: functional
Klebsiella pneumoniae [14] = assay: Antibacterial activity against Klebsiella pneumoniae after 18 to 20 hrs by broth micro dilution assay; assay type: functional
Pseudomonas aeruginosa [15] = assay: Antibacterial activity against Pseudomonas aeruginosa after 18 to 20 hrs by broth micro dilution assay; assay type: functional
Salmonella typhi [16] = assay: Antibacterial activity against Salmonella typhi after 18 to 20 hrs by broth micro dilution assay; assay type: functional, Salmonella enterica subsp. enterica serovar Typhi; settings: Salmonella enterica
Bacillus subtilis [17] = assay: Antibacterial activity against Bacillus subtilis after 18 to 20 hrs by broth micro dilution assay; assay type: functional
Staphylococcus aureus [18] = assay: Antibacterial activity against Staphylococcus aureus at 5 ug after 24 hrs by disc diffusion assay; assay type: functional; settings: read-out: IZ
Staphylococcus aureus [19] = assay: Antibacterial activity against Staphylococcus aureus at 10 ug after 24 hrs by disc diffusion assay; assay type: functional; settings: read-out: IZ
Staphylococcus aureus [20] = assay: Antibacterial activity against Staphylococcus aureus at 15 ug after 24 hrs by disc diffusion assay; assay type: functional; settings: read-out: IZ
Staphylococcus aureus [21] = assay: Antibacterial activity against Staphylococcus aureus at 20 ug after 24 hrs by disc diffusion assay; assay type: functional; settings: read-out: IZ
Staphylococcus aureus [22] = assay: Antibacterial activity against Staphylococcus aureus at 25 ug after 24 hrs by disc diffusion assay; assay type: functional; settings: read-out: IZ
Escherichia coli [23] = assay: Antibacterial activity against Escherichia coli at 5 ug after 24 hrs by disc diffusion assay; assay type: functional; settings: read-out: IZ
Escherichia coli [24] = assay: Antibacterial activity against Escherichia coli at 10 ug after 24 hrs by disc diffusion assay; assay type: functional; settings: read-out: IZ
Escherichia coli [25] = assay: Antibacterial activity against Escherichia coli at 15 ug after 24 hrs by disc diffusion assay; assay type: functional; settings: read-out: IZ
Escherichia coli [26] = assay: Antibacterial activity against Escherichia coli at 20 ug after 24 hrs by disc diffusion assay; assay type: functional; settings: read-out: IZ
Escherichia coli [27] = assay: Antibacterial activity against Escherichia coli at 25 ug after 24 hrs by disc diffusion assay; assay type: functional; settings: read-out: IZ
Pseudomonas aeruginosa [28] = assay: Antibacterial activity against Pseudomonas aeruginosa at 5 ug after 24 hrs by disc diffusion assay; assay type: functional; settings: read-out: IZ
Pseudomonas aeruginosa [29] = assay: Antibacterial activity against Pseudomonas aeruginosa at 10 ug after 24 hrs by disc diffusion assay; assay type: functional; settings: read-out: IZ
Pseudomonas aeruginosa [30] = assay: Antibacterial activity against Pseudomonas aeruginosa at 15 ug after 24 hrs by disc diffusion assay; assay type: functional; settings: read-out: IZ
Pseudomonas aeruginosa [31] = assay: Antibacterial activity against Pseudomonas aeruginosa at 20 ug after 24 hrs by disc diffusion assay; assay type: functional; settings: read-out: IZ
Pseudomonas aeruginosa [32] = assay: Antibacterial activity against Pseudomonas aeruginosa at 25 ug after 24 hrs by disc diffusion assay; assay type: functional; settings: read-out: IZ
Klebsiella pneumoniae [33] = assay: Antibacterial activity against Klebsiella pneumoniae at 5 ug after 24 hrs by disc diffusion assay; assay type: functional; settings: read-out: IZ
Klebsiella pneumoniae [34] = assay: Antibacterial activity against Klebsiella pneumoniae at 10 ug after 24 hrs by disc diffusion assay; assay type: functional; settings: read-out: IZ
Klebsiella pneumoniae [35] = assay: Antibacterial activity against Klebsiella pneumoniae at 15 ug after 24 hrs by disc diffusion assay; assay type: functional; settings: read-out: IZ
Klebsiella pneumoniae [36] = assay: Antibacterial activity against Klebsiella pneumoniae at 20 ug after 24 hrs by disc diffusion assay; assay type: functional; settings: read-out: IZ
Klebsiella pneumoniae [37] = assay: Antibacterial activity against Klebsiella pneumoniae at 25 ug after 24 hrs by disc diffusion assay; assay type: functional; settings: read-out: IZ
Salmonella typhi [38] = assay: Antibacterial activity against Salmonella typhi at 5 ug after 24 hrs by disc diffusion assay; assay type: functional, Salmonella enterica subsp. enterica serovar Typhi; settings: Salmonella enterica, read-out: IZ

`CCC1[C@@H]2c3c(c4ccccc4n(C)c3=O)OC(c3ccccc3)[C@H]2CN1OS(=O)(=O)c1ccc(C)cc1` (mixture of isomers) gave a zone of inhibition at 10 µg/disc (Salmonella typhi [1]) of 16 mm, a zone of inhibition at 15 µg/disc (Salmonella typhi [2]) of 18 mm and a zone of inhibition at 20 µg/disc (Salmonella typhi [3]) of 20 mm. The zone of inhibition at 25 µg/disc (Salmonella typhi [4]) was 22 mm, the zone of inhibition at 10 µg/disc (Bacillus subtilis [5]) was 7 mm and the zone of inhibition at 15 µg/disc (Bacillus subtilis [6]) was 9 mm. The zone of inhibition at 20 µg/disc (Bacillus subtilis [7]) was 10 mm, the zone of inhibition at 25 µg/disc (Bacillus subtilis [8]) was 12 mm and the “DNA gyrase inhibition (active/inactive)” value (Escherichia coli [9]) was “Active”. The inhibition (Escherichia coli [10]) was “Active”, the “inhibition of gyrase mRNA expression (active/not active)” value (Escherichia coli [11]) was “Active” and the MIC50 (Staphylococcus aureus [12]) was 128 µg/mL. It also gave an MIC90 (Staphylococcus aureus [12]) of 128 µg/mL, an MIC50 (Escherichia coli [13]) of 128 µg/mL and an MIC90 (Escherichia coli [13]) of 128 µg/mL. For the same molecule, the MIC50 (Klebsiella pneumoniae [14]) was 128 µg/mL, the MIC90 (Klebsiella pneumoniae [14]) was 128 µg/mL and the MIC50 (Pseudomonas aeruginosa [15]) was 128 µg/mL. For the same molecule, the MIC90 (Pseudomonas aeruginosa [15]) was 128 µg/mL, the MIC50 (Salmonella typhi [16]) was 128 µg/mL and the MIC90 (Salmonella typhi [16]) was 128 µg/mL. For the same molecule, the MIC50 (Bacillus subtilis [17]) was 128 µg/mL, the MIC90 (Bacillus subtilis [17]) was 128 µg/mL and the zone of inhibition at 5 µg/disc (Staphylococcus aureus [18]) was 9 mm. The zone of inhibition at 10 µg/disc (Staphylococcus aureus [19]) was 12 mm, the zone of inhibition at 15 µg/disc (Staphylococcus aureus [20]) was 13 mm and the zone of inhibition at 20 µg/disc (Staphylococcus aureus [21]) was 14 mm. The zone of inhibition at 25 µg/disc (Staphylococcus aureus [22]) was 17 mm, the zone of inhibition at 5 µg/disc (Escherichia coli [23]) was 10 mm and the zone of inhibition at 10 µg/disc (Escherichia coli [24]) was 16 mm. The zone of inhibition at 15 µg/disc (Escherichia coli [25]) was 18 mm, the zone of inhibition at 20 µg/disc (Escherichia coli [26]) was 20 mm and the zone of inhibition at 25 µg/disc (Escherichia coli [27]) was 23 mm. For the same molecule, the zone of inhibition at 5 µg/disc (Pseudomonas aeruginosa [28]) was 10 mm, the zone of inhibition at 10 µg/disc (Pseudomonas aeruginosa [29]) was 16 mm and the zone of inhibition at 15 µg/disc (Pseudomonas aeruginosa [30]) was 17 mm. For the same molecule, the zone of inhibition at 20 µg/disc (Pseudomonas aeruginosa [31]) was 22 mm, the zone of inhibition at 25 µg/disc (Pseudomonas aeruginosa [32]) was 24 mm and the zone of inhibition at 5 µg/disc (Klebsiella pneumoniae [33]) was 20 mm. For the same molecule, the zone of inhibition at 10 µg/disc (Klebsiella pneumoniae [34]) was 26 mm, the zone of inhibition at 15 µg/disc (Klebsiella pneumoniae [35]) was 30 mm and the zone of inhibition at 20 µg/disc (Klebsiella pneumoniae [36]) was 34 mm. It also gave a zone of inhibition at 25 µg/disc (Klebsiella pneumoniae [37]) of 36 mm and a zone of inhibition at 5 µg/disc (Salmonella typhi [38]) of 10 mm.

Source: ChEMBL document CHEMBL1781873, “Synthesis and antibacterial property of pyrrolopyrano quinolinones and pyrroloquinolines” (2011)
